Data as given in patent US20260014147A1, “STAT6 DEGRADERS” (Gilead Sciences, Inc., priority 2024, published 2026).

Biological target: T1, STAT6 (endogenous, HiBiT-tagged) in HeLa LgBiT clone 4.14 cells (Homo sapiens, UniProt P42226)
T1 construct: These cells express endogenous STAT6; host or cells: HeLa LgBiT clone 4.14
T1 sequence (P42226 1-847): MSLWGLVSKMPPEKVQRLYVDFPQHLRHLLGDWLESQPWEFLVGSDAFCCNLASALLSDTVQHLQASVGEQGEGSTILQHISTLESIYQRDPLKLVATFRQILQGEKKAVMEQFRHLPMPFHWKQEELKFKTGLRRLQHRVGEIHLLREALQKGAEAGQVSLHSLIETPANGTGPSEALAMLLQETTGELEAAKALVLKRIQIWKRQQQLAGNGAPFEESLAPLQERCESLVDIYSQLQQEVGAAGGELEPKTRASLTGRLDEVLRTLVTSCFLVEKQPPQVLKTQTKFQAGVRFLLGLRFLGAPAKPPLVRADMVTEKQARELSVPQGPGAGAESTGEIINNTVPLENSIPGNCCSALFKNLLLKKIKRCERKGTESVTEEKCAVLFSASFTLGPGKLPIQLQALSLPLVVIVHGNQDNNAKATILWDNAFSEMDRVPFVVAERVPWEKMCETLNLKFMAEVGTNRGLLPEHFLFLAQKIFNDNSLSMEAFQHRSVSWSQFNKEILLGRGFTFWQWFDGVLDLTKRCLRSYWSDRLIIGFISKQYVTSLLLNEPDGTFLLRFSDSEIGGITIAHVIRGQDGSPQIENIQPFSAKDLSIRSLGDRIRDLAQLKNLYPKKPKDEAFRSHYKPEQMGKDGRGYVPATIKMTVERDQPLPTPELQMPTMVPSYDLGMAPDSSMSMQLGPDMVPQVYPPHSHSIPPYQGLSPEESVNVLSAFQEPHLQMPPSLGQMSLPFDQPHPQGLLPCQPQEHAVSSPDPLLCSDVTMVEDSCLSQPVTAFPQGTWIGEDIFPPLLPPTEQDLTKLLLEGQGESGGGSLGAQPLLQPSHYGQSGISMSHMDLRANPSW
Assay: STAT6 Degrader Assay (HiBiT based, HeLa LgBiT clone 4.14 cells, luminescence, DC50)
Format: cell-based
Conditions: geometric mean; for DC50: DC50 provided for test compounds with >80% Emax, read-out: STAT6 degradation DC50; for Emax: Emax provided for test compounds with <80% Emax (and 2c15), read-out: STAT6 degradation Emax
Procedure, shortened: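 Remaining STAT6 is read as NanoBiT luminescence after 0.5 h with Nano-Glo, in HeLa LgBiT clone 4.14 cells expressing endogenous HiBiT-tagged STAT6, following 4-24 h compound incubation at 37 °C. Full degradation is set by 50 µM terfenadine, which kills the cells; degradation plotted against log compound concentration.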

| Compound | DC50 [nM] | Emax [%] |
| --- | --- | --- |
| COCc1nc2cc(-c3ccnc4c3cc([C@H](C)N3CCC(c5ccc(C(=O)N6CCC(CN7CCN(c8ccc(NC9CCC(=O)NC9=O)cc8Cl)CC7)CC6)cc5)CC3)n4C)ccc2[nH]1 (stereo partly drawn) [Example 2i4, 3-((3-chloro-4-(4-((1-(4-(1-((S)-1-(4-(2-(methoxymethyl)-1H-benzo[d]imidazol-5-yl)-1-methyl-1H-pyrrolo[2,3-b]pyridin-2-yl)ethyl)piperidin-4-yl)benzoyl)piperidin-4-yl)methyl)piperazin-1-yl)phenyl)amino)piperidine-2,6-dione] | 7.6 |  |
| COCc1nc2cc(-c3ccnc4c3cc([C@H](C)N3CCC(c5ccc(C(=O)N6CCC(CN7CCN(c8ccc(NC9CCC(=O)NC9=O)cc8C(F)(F)F)CC7)CC6)cc5)CC3)n4C)ccc2[nH]1 (stereo partly drawn) [Example 2i5, 3-((4-(4-((1-(4-(1-((S)-1-(4-(2-(methoxymethyl)-1H-benzo[d]imidazol-5-yl)-1-methyl-1H-pyrrolo[2,3-b]pyridin-2-yl)ethyl)piperidin-4-yl)benzoyl)piperidin-4-yl)methyl)piperazin-1-yl)-3-(trifluoromethyl)phenyl)amino)piperidine-2,6-dione] | 34 |  |
| C[C@@H](c1cc2c(-c3ccc(N)nc3)ccnc2n1C)N1CCC(c2ccc(C(=O)N3CCC(CN4CCN(c5ccc(NC6CCC(=O)NC6=O)cc5Cl)CC4)CC3)cc2)CC1 (stereo partly drawn) [Example 2i6, 3-((4-(4-((1-(4-(1-((S)-1-(4-(6-aminopyridin-3-yl)-1-methyl-1H-pyrrolo[2,3-b]pyridin-2-yl)-ethyl)piperidin-4-yl)benzoyl)piperidin-4-yl)methyl)piperazin-1-yl)-3-chlorophenyl)amino)piperidine-2,6-dione] |  | 70 to 80 |
| C[C@@H](c1cc2c(-c3ccc(N)nc3)ccnc2n1C)N1CCC(c2ccc(C(=O)N3CCC(CN4CCN(c5ccc(NC6CCC(=O)NC6=O)cc5C(F)(F)F)CC4)CC3)cc2)CC1 (stereo partly drawn) [Example 2i7, 3-((4-(4-((1-(4-(1-((S)-1-(4-(6-aminopyridin-3-yl)-1-methyl-1H-pyrrolo[2,3-b]pyridin-2-yl)-ethyl)-piperidin-4-yl)benzoyl)piperidin-4-yl)methyl)piperazin-1-yl)-3-(trifluoromethyl)phenyl)amino)-piperidine-2,6-dione] |  | 40 to 50 |
| CN(C(=O)c1ccc(C2CCN(Cc3cc4c(-c5ccc6[nH]ncc6c5)ccnc4n3C)CC2)cc1)c1ccc(C2CCN(c3ccc(NC4CCC(=O)NC4=O)cc3F)CC2)cc1 (stereo not shown) [Example 2j1, 4-(1-((4-(1H-indazol-5-yl)-1-methyl-1H-pyrrolo[2,3-b]pyridin-2-yl)methyl)piperidin-4-yl)-N-(4-(1-(4-((2,6-dioxopiperidin-3-yl)amino)-2-fluorophenyl)piperidin-4-yl)phenyl)-N-methylbenzamide] |  | 70 to 80 |
| CN(C(=O)c1ccc(C2CCN(Cc3cc4c(-c5ccc6[nH]ncc6c5)ccnc4n3C)CC2)cc1)c1ccc(C2CCN(c3ccc(NC4CCC(=O)NC4=O)cc3)CC2)cc1 (stereo not shown) [Example 2j2, 4-(1-((4-(1H-indazol-5-yl)-1-methyl-1H-pyrrolo[2,3-b]pyridin-2-yl)methyl)piperidin-4-yl)-N-(4-(1-(4-((2,6-dioxopiperidin-3-yl)amino)phenyl)piperidin-4-yl)phenyl)-N-methylbenzamide] |  | 40 to 50 |
| COCc1nc2cc(-c3ccnc4c3cc([C@H](C)N3CCC(c5ccc(C(=O)N6CCC(CN7CCC(c8ccc(NC9CCC(=O)NC9=O)cc8F)C(F)(F)C7)CC6)cc5)CC3)n4C)ccc2[nH]1 (stereo partly drawn) [Example 2m3, 3-((4-(3,3-difluoro-1-((1-(4-(1-((S)-1-(4-(2-(methoxymethyl)-1H-benzo[d]imidazol-5-yl)-1-methyl-1H-pyrrolo[2,3-b]pyridin-2-yl)ethyl)piperidin-4-yl)benzoyl)piperidin-4-yl)methyl)piperidin-4-yl)-3-fluorophenyl)amino)piperidine-2,6-dione] | 23.5 |  |
| COCc1nc2cc(-c3ccnc4c3cc(CN3CCC(c5ccc(C(=O)N6CCC(CN7CCN(c8ccc(NC9CCC(=O)NC9=O)c(F)n8)CC7)CC6)cc5)CC3)n4C)ccc2[nH]1 (stereo not shown) [Example 2n3, 3-((2-fluoro-6-(4-((1-(4-(1-((4-(2-(methoxymethyl)-1H-benzo[d]imidazol-5-yl)-1-methyl-1H-pyrrolo[2,3-b]pyridin-2-yl)methyl)piperidin-4-yl)benzoyl)piperidin-4-yl)methyl)piperazin-1-yl)pyridin-3-yl)amino)piperidine-2,6-dione] | 19.8 |  |

Second part, the compound after the results:

| DC50 [nM] | Emax [%] | Compound |
| --- | --- | --- |
| 28.8 |  | Cn1c(CN2CCC(c3ccc(C(=O)N4CCC(CN5CCN(c6ncc(NC7CCC(=O)NC7=O)cn6)CC5)CC4)cc3)CC2)cc2c(-c3ccc4[nH]ncc4c3)ccnc21 (stereo not shown) [Example 2k1, 3-((2-(4-((1-(4-(1-((4-(1H-indazol-5-yl)-1-methyl-1H-pyrrolo[2,3-b]pyridin-2-yl)methyl)-piperidin-4-yl)benzoyl)piperidin-4-yl)methyl)piperazin-1-yl)pyrimidin-5-yl)amino)piperidine-2,6-dione] |
|  | 30 to 40 | Cn1c(CN2CCC(c3ccc(C(=O)N4CCC(CN5CCN(c6nccc(NC7CCC(=O)NC7=O)n6)CC5)CC4)cc3)CC2)cc2c(-c3ccc4[nH]ncc4c3)ccnc21 (stereo not shown) [Example 2k2, 3-((2-(4-((1-(4-(1-((4-(1H-indazol-5-yl)-1-methyl-1H-pyrrolo[2,3-b]pyridin-2-yl)methyl)-piperidin-4-yl)benzoyl)piperidin-4-yl)methyl)piperazin-1-yl)pyrimidin-4-yl)amino)piperidine-2,6-dione] |
|  | 30 to 40 | Cn1c(CN2CCC(c3ccc(C(=O)N4CCC(CN5CCN(c6ccnc(NC7CCC(=O)NC7=O)n6)CC5)CC4)cc3)CC2)cc2c(-c3ccc4[nH]ncc4c3)ccnc21 (stereo not shown) [Example 2k3, 3-((4-(4-((1-(4-(1-((4-(1H-indazol-5-yl)-1-methyl-1H-pyrrolo[2,3-b]pyridin-2-yl)methyl)-piperidin-4-yl)benzoyl)piperidin-4-yl)methyl)piperazin-1-yl)pyrimidin-2-yl)amino)piperidine-2,6-dione] |
|  | 60 to 70 | Cn1c(CN2CCC(c3ccc(C(=O)N4CCC(CN5CCN(c6cccc(NC7CCC(=O)NC7=O)c6)CC5)CC4)cc3)CC2)cc2c(-c3ccc4[nH]ncc4c3)ccnc21 (stereo not shown) [Example 2l1, 3-((3-(4-((1-(4-(1-((4-(1H-indazol-5-yl)-1-methyl-1H-pyrrolo[2,3-b]pyridin-2-yl)methyl)-piperidin-4-yl)benzoyl)piperidin-4-yl)methyl)piperazin-1-yl)phenyl)amino)piperidine-2,6-dione] |
| 15.2 |  | Cn1c(CN2CCC(c3ccc(C(=O)N4CCC(CN5CCN(c6ccc(NC7CCC(=O)NC7=O)cn6)CC5)CC4)cc3)CC2)cc2c(-c3ccc4[nH]ncc4c3)ccnc21 (stereo not shown) [Example 2n1, 3-((6-(4-((1-(4-(1-((4-(1H-indazol-5-yl)-1-methyl-1H-pyrrolo[2,3-b]pyridin-2-yl)methyl)piperidin-4-yl)benzoyl)piperidin-4-yl)methyl)piperazin-1-yl)pyridin-3-yl)amino)piperidine-2,6-dione] |
| 28.6 |  | Cn1c(CN2CCC(c3ccc(C(=O)N4CCC(CN5CCN(c6ccc(NC7CCC(=O)NC7=O)c(F)n6)CC5)CC4)cc3)CC2)cc2c(-c3ccc4[nH]ncc4c3)ccnc21 (stereo not shown) [Example 2n2, 3-((6-(4-((1-(4-(1-((4-(1H-indazol-5-yl)-1-methyl-1H-pyrrolo[2,3-b]pyridin-2-yl)methyl)-piperidin-4-yl)benzoyl)piperidin-4-yl)methyl)piperazin-1-yl)-2-fluoropyridin-3-yl)amino)piperidine-2,6-dione] |
|  | 70 to 80 | Cn1c(CN2CCC(c3ccc(C(=O)N4CCC(CN5CCN(c6ccc(NC7CCC(=O)NC7=O)c(F)n6)CC5)CC4)cc3)CC2)cc2c(-c3ccc(N)nc3)ccnc21 (stereo not shown) [Example 2n4, 3-((6-(4-((1-(4-(1-((4-(6-aminopyridin-3-yl)-1-methyl-1H-pyrrolo[2,3-b]pyridin-2-yl)methyl)-piperidin-4-yl)benzoyl)piperidin-4-yl)methyl)piperazin-1-yl)-2-fluoropyridin-3-yl)amino)piperidine-2,6-dione] |
|  | 60 to 70 | Cn1c(CN2CCC(c3ccc(C(=O)N4CCC(CN5CCN(c6ncc(NC7CCC(=O)NC7=O)cc6F)CC5)CC4)cc3)CC2)cc2c(-c3ccc(N)nc3)ccnc21 (stereo not shown) [Example 2n5, 3-((6-(4-((1-(4-(1-((4-(6-aminopyridin-3-yl)-1-methyl-1H-pyrrolo[2,3-b]pyridin-2-yl)methyl)-piperidin-4-yl)benzoyl)piperidin-4-yl)methyl)piperazin-1-yl)-5-fluoropyridin-3-yl)amino)piperidine-2,6-dione] |
